Test results as given in article PMC9241942 (Microbiology Spectrum, 2022).

Tests used:
[1] = Fecal vancomycin levels in original clinical stool samples of healthy volunteers, HPLC-PDA at 205 nm; format: in vivo, human; settings: for Vancomycin concn, Aliquot 3 / Vancomycin concn, Aliquot 2: original stool
Method: (§1) An aliquot of stool and 1 mL of extraction solvent (acetonitrile and water, 10:90 [vol/vol], 0.1% TFA) was added into 2-mL centrifuge tube and shaken (Vortex-Genie 2 Shaker, Scientific Industries, USA) for 10 s, ultrasonicated for 5 min (Multool ultrasonic cleaner, Model: TH-030A), and centrifuged at 10,000 g for 3 min (Centrifuge 5804 R, Eppendorf). The supernatant was collected and diluted by 10-fold using the extraction solvent and was stored at −80°C prior to HPLC analysis.
(§2) The mobile phase consisted of a mixture of acetonitrile and water, (10:90 [v:v], 0.1% TFA). The flow rate and the temperature of column oven were set at 0.3 mL/min and 40°C, respectively.
(§3) Differences in concentrations were compared by RSD.

[2] = cited from earlier work
From the text: The goal of the human microbiome project (HMP) is to characterize the human microbiome and analyze its role in health and disease ([1]). The HMP has advanced science on the systems biology of the gut microbiome, the most diverse and abundant microbiome in the human body. By far, the largest contributor to immediate changes in the human gut microbiome are broad spectrum antimicrobials that are excreted via the gastrointestinal tract. […] Moreover, the quantitative range of our new method ( ...

[3] = Fecal vancomycin levels in lyophilized clinical stool samples, HPLC, with water correction; format: in vivo, human
Method: as §1, §2, §3

[4] = Vancomycin stability in clinical stool samples over time (inter-day); format: in vitro ADME, human; settings: for Day 0, vancomycin concn: first assay; for Day 0, vancomycin concn / Day 48, vancomycin concn: Mean ± SD, identical aliquots n = 3, SD; for Day 48, vancomycin concn: second assay after storage
Method: as §1, §2, §3

[5] = cited from earlier work; remark: listed apart in the source
From the text: The goal of the human microbiome project (HMP) is to characterize the human microbiome and analyze its role in health and disease ([1]). The HMP has advanced science on the systems biology of the gut microbiome, the most diverse and abundant microbiome in the human body. By far, the largest contributor to immediate changes in the human gut microbiome are broad spectrum antimicrobials that are excreted via the gastrointestinal tract. To be able to properly study the effect of antimicrobials on the gut microbiome, pharmacokinetic studies using validated assays in the correct biologic matrix will ... || During the phase I clinical trial mentioned above, the pharmacokinetics of ibezapolstat was evaluated using a commercial laboratory. They required the entire stool in order to homogenize the sample for accurate pharmacokinetics results as the heterogeneity of antibiotics in stool samples has not been studied. This differs from blood, urine, or other matrices in which an almost constant supply is present. However, as bowl movements only occur once per day or less, use of an entire sample for pharmacokinetic analyses excludes other microbiome evaluations from that particular day or time-period. ...

[6] = Comparison with orthophosphoric acid-based extraction method (Berthoin et al. 2009), total fecal vancomycin by HPLC; format: in vivo, human
Method: Briefly, six samples were chosen with two aliquots were prepared for each sample. The aliquots were mixed with 971 μL of water and 29 μL of 85% orthophosphoric acid according to the composition of orthophosphoric acid-based extraction solvent developed by Berthoin et al. (2009) ([17]).

## CN[C@H](CC(C)C)C(=O)N[C@H]1C(=O)N[C@@H](CC(N)=O)C(=O)N[C@H]2C(=O)N[C@H]3C(=O)N[C@H](C(=O)N[C@H](C(=O)O)c4cc(O)cc(O)c4-c4cc3ccc4O)[C@H](O)c3ccc(c(Cl)c3)Oc3cc2cc(c3O[C@@H]2O[C@H](CO)[C@@H](O)[C@H](O)[C@H]2O[C@H]2C[C@](C)(N)[C@H](O)[C@H](C)O2)Oc2ccc(cc2Cl)[C@H]1O [vancomycin]
[1]; healthy volunteers, oral 125 mg 4 times daily for 10 days
  persistence of vancomycin in stool after end of dosing (in words): persists for several days following the end of the 10-day dosing regimen
[1]; original clinical sample 9, fecal extract diluted by 10-fold, 205 nm
  vancomycin concentration in the diluted fecal extract solution: 20.1 µg/mL
[1]; sample 5, subject H, day 5, oral 125 mg 4 times daily for 10 days, wet wt 33.0 mg
  Vancomycin concn, Aliquot 3: 259 (33.0) μg/g
[1]; sample 5, subject H, day 5, oral 125 mg 4 times daily for 10 days, wet wt 52.9 mg
  Vancomycin concn, Aliquot 2: 259 (52.9) μg/g
[1]; sample 6, subject E, day 8, oral 125 mg 4 times daily for 10 days, wet wt 40.7 mg
  Vancomycin concn, Aliquot 2: 2033 (40.7) μg/g
[1]; sample 6, subject E, day 8, oral 125 mg 4 times daily for 10 days, wet wt 106.5 mg
  Vancomycin concn, Aliquot 3: 1660 (106.5) μg/g
[1]; sample 7, subject F, day 8, oral 125 mg 4 times daily for 10 days, wet wt 48.1 mg
  Vancomycin concn, Aliquot 3: 2057 (48.1) μg/g
[1]; sample 7, subject F, day 8, oral 125 mg 4 times daily for 10 days, wet wt 55.7 mg
  Vancomycin concn, Aliquot 2: 1877 (55.7) μg/g
[1]; sample 8, subject E, day 9, oral 125 mg 4 times daily for 10 days, wet wt 61.5 mg
  Vancomycin concn, Aliquot 3: 1920 (61.5) μg/g
[1]; sample 8, subject E, day 9, oral 125 mg 4 times daily for 10 days, wet wt 91.7 mg
  Vancomycin concn, Aliquot 2: 1868 (91.7) μg/g
[1]; sample 9, subject F, day 9, oral 125 mg 4 times daily for 10 days, wet wt 68.4 mg
  Vancomycin concn, Aliquot 2: 1964 (68.4) μg/g
[1]; sample 9, subject F, day 9, oral 125 mg 4 times daily for 10 days, wet wt 80.2 mg
  Vancomycin concn, Aliquot 3: 1973 (80.2) μg/g
[1]; sample 10, subject D, day 10, oral 125 mg 4 times daily for 10 days, wet wt 34.7 mg
  Vancomycin concn, Aliquot 2: 1947 (34.7) μg/g
[1]; sample 10, subject D, day 10, oral 125 mg 4 times daily for 10 days, wet wt 57.0 mg
  Vancomycin concn, Aliquot 3: 1775 (57.0) μg/g
[1]; sample 11, subject D, day 11, oral 125 mg 4 times daily for 10 days, wet wt 62.7 mg
  Vancomycin concn, Aliquot 2: 1801 (62.7) μg/g
[1]; sample 11, subject D, day 11, oral 125 mg 4 times daily for 10 days, wet wt 64.0 mg
  Vancomycin concn, Aliquot 3: 1891 (64.0) μg/g
[1]; sample 12, subject F, day 11, oral 125 mg 4 times daily for 10 days, wet wt 47 mg
  Vancomycin concn, Aliquot 2: 1920 (47) μg/g
[1]; sample 12, subject F, day 11, oral 125 mg 4 times daily for 10 days, wet wt 54.2 mg
  Vancomycin concn, Aliquot 3: 1488 (54.2) μg/g
[1]; sample 14, subject F, day 12, oral 125 mg 4 times daily for 10 days, wet wt 60.8 mg
  Vancomycin concn, Aliquot 2: 1162 (60.8) μg/g
[1]; sample 14, subject F, day 12, oral 125 mg 4 times daily for 10 days, wet wt 74.6 mg
  Vancomycin concn, Aliquot 3: 1070 (74.6) μg/g
[1]; sample 15, subject D, day 12, oral 125 mg 4 times daily for 10 days, wet wt 59.4 mg
  Vancomycin concn, Aliquot 3: 1200 (59.4) μg/g
[1]; sample 15, subject D, day 12, oral 125 mg 4 times daily for 10 days, wet wt 90.1 mg
  Vancomycin concn, Aliquot 2: 1111 (90.1) μg/g
[2]
  typical fecal vancomycin level after standard oral vancomycin administration: > 100 µg/mL
[2]; oral, mainly excreted into the stool
  absorption from the human gastrointestinal (GI) tract (in words): absorbed minimally
[3]; sample 6, subject E, day 8, oral 125 mg 4 times daily for 10 days, aliquot 1, wt 31 mg
  Lyophilized samples, Vanco conc: 9,206 μg/g
[3]; sample 6, subject E, day 8, oral 125 mg 4 times daily for 10 days, aliquot 2, wt 58.2 mg
  Lyophilized samples, Vanco conc: 10,109 μg/g
[3]; sample 6, subject E, day 8, oral 125 mg 4 times daily for 10 days, mean of 2 aliquots
  Lyophilized samples, Vanco conc, Mean: 9,658 μg/g
[3]; sample 7, subject F, day 8, oral 125 mg 4 times daily for 10 days, aliquot 1, wt 44.6 mg
  Lyophilized samples, Vanco conc: 8,614 μg/g
[3]; sample 7, subject F, day 8, oral 125 mg 4 times daily for 10 days, aliquot 2, wt 28.2 mg
  Lyophilized samples, Vanco conc: 9,367 μg/g
[3]; sample 7, subject F, day 8, oral 125 mg 4 times daily for 10 days, mean of 2 aliquots
  Lyophilized samples, Vanco conc, Mean: 8,991 μg/g
[3]; sample 8, subject E, day 9, oral 125 mg 4 times daily for 10 days, aliquot 1, wt 28.7 mg
  Lyophilized samples, Vanco conc: 10,116 μg/g
[3]; sample 8, subject E, day 9, oral 125 mg 4 times daily for 10 days, aliquot 2, wt 39.4 mg
  Lyophilized samples, Vanco conc: 9,445 μg/g
[3]; sample 8, subject E, day 9, oral 125 mg 4 times daily for 10 days, mean of 2 aliquots
  Lyophilized samples, Vanco conc, Mean: 9,781 μg/g
[3]; sample 9, subject F, day 9, oral 125 mg 4 times daily for 10 days, aliquot 1, wt 26.7 mg
  Lyophilized samples, Vanco conc: 9,745 μg/g
[3]; sample 9, subject F, day 9, oral 125 mg 4 times daily for 10 days, aliquot 2, wt 43.3 mg
  Lyophilized samples, Vanco conc: 8,981 μg/g
[3]; sample 9, subject F, day 9, oral 125 mg 4 times daily for 10 days, aliquot 3, wt 60.8 mg
  Lyophilized samples, Vanco conc: 8,935 μg/g
[3]; sample 9, subject F, day 9, oral 125 mg 4 times daily for 10 days, mean of 3 aliquots
  Lyophilized samples, Vanco conc, Mean: 9,220 μg/g
[3]; sample 10, subject D, day 10, oral 125 mg 4 times daily for 10 days, aliquot 1, wt 41.2 mg
  Lyophilized samples, Vanco conc: 7,501 μg/g
[3]; sample 10, subject D, day 10, oral 125 mg 4 times daily for 10 days, aliquot 2, wt 75.3 mg
  Lyophilized samples, Vanco conc: 6,911 μg/g
[3]; sample 10, subject D, day 10, oral 125 mg 4 times daily for 10 days, mean of 2 aliquots
  Lyophilized samples, Vanco conc, Mean: 7,206 μg/g
[3]; sample 11, subject D, day 11, oral 125 mg 4 times daily for 10 days, aliquot 1, wt 51.9 mg
  Lyophilized samples, Vanco conc: 7,688 μg/g
[3]; sample 11, subject D, day 11, oral 125 mg 4 times daily for 10 days, aliquot 2, wt 36.8 mg
  Lyophilized samples, Vanco conc: 8,166 μg/g
[3]; sample 11, subject D, day 11, oral 125 mg 4 times daily for 10 days, aliquot 3, wt 30 mg
  Lyophilized samples, Vanco conc: 6,457 μg/g
[3]; sample 11, subject D, day 11, oral 125 mg 4 times daily for 10 days, mean of 3 aliquots
  Lyophilized samples, Vanco conc, Mean: 7,437 μg/g
[3]; sample 12, subject F, day 11, oral 125 mg 4 times daily for 10 days, aliquot 1, wt 12.7 mg
  Lyophilized samples, Vanco conc: 9,026 μg/g
[3]; sample 12, subject F, day 11, oral 125 mg 4 times daily for 10 days, aliquot 2, wt 32.6 mg
  Lyophilized samples, Vanco conc: 8,563 μg/g
[3]; sample 12, subject F, day 11, oral 125 mg 4 times daily for 10 days, aliquot 3, wt 49.2 mg
  Lyophilized samples, Vanco conc: 6,962 μg/g
[3]; sample 12, subject F, day 11, oral 125 mg 4 times daily for 10 days, mean of 3 aliquots
  Lyophilized samples, Vanco conc, Mean: 8,184 μg/g
[3]; sample 14, subject F, day 12, oral 125 mg 4 times daily for 10 days, aliquot 1, wt 19 mg
  Lyophilized samples, Vanco conc: 6,748 μg/g
[3]; sample 14, subject F, day 12, oral 125 mg 4 times daily for 10 days, aliquot 2, wt 37.1 mg
  Lyophilized samples, Vanco conc: 5,810 μg/g
[3]; sample 14, subject F, day 12, oral 125 mg 4 times daily for 10 days, aliquot 3, wt 56.2 mg
  Lyophilized samples, Vanco conc: 5,803 μg/g
[3]; sample 14, subject F, day 12, oral 125 mg 4 times daily for 10 days, mean of 3 aliquots
  Lyophilized samples, Vanco conc, Mean: 6,120 μg/g
[3]; sample 15, subject D, day 12, oral 125 mg 4 times daily for 10 days, aliquot 1, wt 41.6 mg
  Lyophilized samples, Vanco conc: 5,058 μg/g
[3]; sample 15, subject D, day 12, oral 125 mg 4 times daily for 10 days, aliquot 2, wt 38.5 mg
  Lyophilized samples, Vanco conc: 4,941 μg/g
[3]; sample 15, subject D, day 12, oral 125 mg 4 times daily for 10 days, aliquot 3, wt 44.1 mg
  Lyophilized samples, Vanco conc: 4,921 μg/g
[3]; sample 15, subject D, day 12, oral 125 mg 4 times daily for 10 days, mean of 3 aliquots
  Lyophilized samples, Vanco conc, Mean: 4,973 μg/g
[4]; clinical stool sample 5
  Day 0, vancomycin concn: 269 ± 3 µg/g
  Day 48, vancomycin concn: 259 ± 14 µg/g
[4]; clinical stool sample 9
  Day 0, vancomycin concn: 1,897 ± 7 μg/g
  Day 48, vancomycin concn: 1,905 ± 12 μg/g
[4]; clinical stool sample 14
  Day 0, vancomycin concn: 1,211 ± 8 μg/g
  Day 48, vancomycin concn: 1,220 ± 11 μg/g
[4]; clinical stool samples, up to 49 days studied
  stability of vancomycin concentrations in stool over time: stable over time up to 49 days
[5]
  water solubility (in words): water-soluble
[5]; general statement of the discussion, no reference given
  hydrophilicity (in words): hydrophilic drug
[6]; clinical sample 5, two aliquots
  Fecal vancomycin concentration (Mean ± SD), Previous method: 267 ± 45 µg/mL
[6]; clinical sample 6, two aliquots
  Fecal vancomycin concentration (Mean ± SD), Previous method: 2,045±100 µg/ml
[6]; clinical sample 8, two aliquots
  Fecal vancomycin concentration (Mean ± SD), Previous method: 2,110±23 µg/ml
[6]; clinical sample 9, two aliquots
  Fecal vancomycin concentration (Mean ± SD), Previous method: 2,106±33 µg/ml
[6]; clinical sample 12, two aliquots
  Fecal vancomycin concentration (Mean ± SD), Previous method: 1,771±11 µg/ml
[6]; clinical sample 14, two aliquots
  Fecal vancomycin concentration (Mean ± SD), Previous method: 1,253±47 µg/ml
